Data as given in ChEMBL document CHEMBL1649226, “Species identification and antifungal susceptibility patterns of species belonging to Aspergillus section Nigri” (2009).
≈ marks a conversion by molar mass, not a printed value.

Legend:
Format in all cases: functional
[1] = test system: Aspergillus niger; experiment: Antifungal activity against Aspergillus niger isolate CM-3641 obtained from respiratory tract infection of patient after 48 hrs by EUCAST broth dilution method; details: isolate CM-3641, 48 h
[2] = test system: Aspergillus niger; experiment: Antifungal activity against Aspergillus niger isolate CM-3672 obtained from cutaneous layer of patient after 48 hrs by EUCAST broth dilution method; details: isolate CM-3672, 48 h
[3] = test system: Aspergillus niger; experiment: Antifungal activity against Aspergillus niger isolate CM-4004 obtained from after 48 hrs by EUCAST broth dilution method; details: isolate CM-4004, 48 h
[4] = test system: Aspergillus niger; experiment: Antifungal activity against Aspergillus niger isolate CM-4213 obtained from respiratory tract infection of patient after 48 hrs by EUCAST broth dilution method; details: isolate CM-4213, 48 h
[5] = test system: Aspergillus tubingensis; experiment: Antifungal activity against Aspergillus tubingensis isolate CM-4264 obtained from blood culture after 48 hrs by EUCAST broth dilution method; details: isolate CM-4264, 48 h
[6] = test system: Aspergillus tubingensis; experiment: Antifungal activity against Aspergillus tubingensis isolate CM-4296 obtained from respiratory tract infection of patient after 48 hrs by EUCAST broth dilution method; details: isolate CM-4296, 48 h
[7] = test system: Aspergillus niger; experiment: Antifungal activity against Aspergillus niger isolate CM-4316 obtained from respiratory tract infection of patient after 48 hrs by EUCAST broth dilution method; details: isolate CM-4316, 48 h
[8] = test system: Aspergillus tubingensis; experiment: Antifungal activity against Aspergillus tubingensis isolate CM-5094 obtained from respiratory tract infection of patient after 48 hrs by EUCAST broth dilution method; details: isolate CM-5094, 48 h
[9] = test system: Aspergillus niger; experiment: Antifungal activity against Aspergillus niger isolate CM-5095 obtained from respiratory tract infection of patient after 48 hrs by EUCAST broth dilution method; details: isolate CM-5095, 48 h
[10] = test system: Aspergillus tubingensis; experiment: Antifungal activity against Aspergillus tubingensis isolate CM-3123 obtained from respiratory tract infection of patient after 48 hrs by EUCAST broth dilution method; details: isolate CM-3123, 48 h
[11] = test system: Aspergillus tubingensis; experiment: Antifungal activity against Aspergillus tubingensis isolate CM-3810 obtained from respiratory tract infection of patient after 48 hrs by EUCAST broth dilution method; details: isolate CM-3810, 48 h
[12] = test system: Aspergillus tubingensis; experiment: Antifungal activity against Aspergillus tubingensis isolate CM-4003 after 48 hrs by EUCAST broth dilution method; details: isolate CM-4003, 48 h
[13] = test system: Aspergillus tubingensis; experiment: Antifungal activity against Aspergillus tubingensis isolate CM-4005 after 48 hrs by EUCAST broth dilution method; details: isolate CM-4005, 48 h
[14] = test system: Aspergillus tubingensis; experiment: Antifungal activity against Aspergillus tubingensis isolate CM-4688 obtained from respiratory tract infection of patient after 48 hrs by EUCAST broth dilution method; details: isolate CM-4688, 48 h
[15] = test system: Aspergillus foetidus; experiment: Antifungal activity against Aspergillus foetidus isolate CM-5264 obtained from respiratory tract infection of patient after 48 hrs by EUCAST broth dilution method; details: isolate CM-5264, 48 h
[16] = test system: Aspergillus tubingensis; experiment: Antifungal activity against Aspergillus tubingensis isolate CM-3125 obtained from respiratory tract infection of patient after 48 hrs by EUCAST broth dilution method; details: isolate CM-3125, 48 h
[17] = test system: Aspergillus tubingensis; experiment: Antifungal activity against Aspergillus tubingensis isolate CM-3177 obtained from respiratory tract infection of patient after 48 hrs by EUCAST broth dilution method; details: isolate CM-3177, 48 h
[18] = test system: Aspergillus niger; experiment: Antifungal activity against Aspergillus niger isolate CM-3551 obtained from respiratory tract infection of patient after 48 hrs by EUCAST broth dilution method; details: isolate CM-3551, 48 h
[19] = test system: Aspergillus tubingensis; experiment: Antifungal activity against Aspergillus tubingensis isolate CM-3654 obtained from blood culture after 48 hrs by EUCAST broth dilution method; details: isolate CM-3654, 48 h
[20] = test system: Aspergillus tubingensis; experiment: Antifungal activity against Aspergillus tubingensis isolate CM-4000 after 48 hrs by EUCAST broth dilution method; details: isolate CM-4000, 48 h
[21] = test system: Aspergillus tubingensis; experiment: Antifungal activity against Aspergillus tubingensis isolate CM-4001 after 48 hrs by EUCAST broth dilution method; details: isolate CM-4001, 48 h
[22] = test system: Aspergillus foetidus; experiment: Antifungal activity against Aspergillus foetidus isolate CM-4002 after 48 hrs by EUCAST broth dilution method; details: isolate CM-4002, 48 h
[23] = test system: Aspergillus niger; experiment: Antifungal activity against Aspergillus niger isolate CM-4262 after 48 hrs by EUCAST broth dilution method Ophthalmic; details: isolate CM-4262, 48 h
[24] = test system: Aspergillus tubingensis; experiment: Antifungal activity against Aspergillus tubingensis isolate CM-4352 obtained from respiratory tract infection of patient after 48 hrs by EUCAST broth dilution method; details: isolate CM-4352, 48 h
[25] = test system: Aspergillus tubingensis; experiment: Antifungal activity against Aspergillus tubingensis isolate CM-4897 obtained from blood culture after 48 hrs by EUCAST broth dilution method; details: isolate CM-4897, 48 h
[26] = test system: Aspergillus tubingensis; experiment: Antifungal activity against Aspergillus tubingensis isolate CM-4899 obtained from respiratory tract infection of patient after 48 hrs by EUCAST broth dilution method; details: isolate CM-4899, 48 h
[27] = test system: Aspergillus foetidus; experiment: Antifungal activity against Aspergillus foetidus isolate CM-4995 obtained from prosthesis after 48 hrs by EUCAST broth dilution method; details: isolate CM-4995, 48 h
[28] = test system: Aspergillus niger; experiment: Antifungal activity against Aspergillus niger isolate CM-3236 obtained from respiratory tract infection of patient after 48 hrs by EUCAST broth dilution method; details: isolate CM-3236, 48 h
[29] = test system: Aspergillus niger; experiment: Antifungal activity against Aspergillus niger isolate CM-3257 obtained from respiratory tract infection of patient after 48 hrs by EUCAST broth dilution method; details: isolate CM-3257, 48 h
[30] = test system: Aspergillus niger; experiment: Antifungal activity against Aspergillus niger isolate CM-3506 obtained from respiratory tract infection of patient after 48 hrs by EUCAST broth dilution method; details: isolate CM-3506, 48 h
[31] = test system: Aspergillus tubingensis; experiment: Antifungal activity against Aspergillus tubingensis isolate CM-3507 obtained from respiratory tract infection of patient after 48 hrs by EUCAST broth dilution method; details: isolate CM-3507, 48 h
[32] = test system: Aspergillus tubingensis; experiment: Antifungal activity against Aspergillus tubingensis isolate CM-3585 after 48 hrs by EUCAST broth dilution method; details: isolate CM-3585, 48 h
[33] = test system: Aspergillus niger; experiment: Antifungal activity against Aspergillus niger isolate CM-3586 obtained from catheter of patient after 48 hrs by EUCAST broth dilution method; details: isolate CM-3586, 48 h
[34] = test system: Aspergillus niger; experiment: Antifungal activity against Aspergillus niger isolate CM-3636 obtained from respiratory tract infection of patient after 48 hrs by EUCAST broth dilution method; details: isolate CM-3636, 48 h

Row | Compound | MIC [1] [µg/mL] | MIC [2] [µg/mL] | MIC [3] [µg/mL] | MIC [4] [µg/mL] | MIC [5] [µg/mL] | MIC [6] [µg/mL] | MIC [7] [µg/mL] | MIC [8] [µg/mL] | MIC [9] [µg/mL] | MIC [10] [µg/mL] | MIC [11] [µg/mL] | MIC [12] [µg/mL] | MIC [13] [µg/mL] | MIC [14] [µg/mL] | MIC [15] [µg/mL] | MIC [16] [µg/mL] | MIC [17] [µg/mL] | MIC [18] [µg/mL] | MIC [19] [µg/mL] | MIC [20] [µg/mL] | other results
1 | C[C@@H]1[C@H](O)[C@@H](C)/C=C/C=C/C=C/C=C/C=C/C=C/C=C/[C@H](O[C@@H]2O[C@H](C)[C@@H](O)[C@H](N)[C@@H]2O)C[C@@H]2O[C@](O)(C[C@@H](O)C[C@@H](O)[C@H](O)CC[C@@H](O)C[C@@H](O)CC(=O)O[C@H]1C)C[C@H](O)[C@H]2C(=O)O [AMPHOTERICIN B] | 0.25 (≈ 0.271 µM) | 0.12 (≈ 0.13 µM) | 0.25 (≈ 0.271 µM) | 0.33 (≈ 0.357 µM) | 0.12 (≈ 0.13 µM) | 0.12 (≈ 0.13 µM) | 0.19 (≈ 0.206 µM) | 0.12 (≈ 0.13 µM) | 0.19 (≈ 0.206 µM) | 0.25 (≈ 0.271 µM) | 0.25 (≈ 0.271 µM) | 0.12 (≈ 0.13 µM) | 0.12 (≈ 0.13 µM) | 0.21 (≈ 0.227 µM) | 0.12 (≈ 0.13 µM) | 0.12 (≈ 0.13 µM) | 0.16 (≈ 0.173 µM) | 0.5 (≈ 0.541 µM) | 0.19 (≈ 0.206 µM) | 0.16 (≈ 0.173 µM) | MIC [21]: 0.19 µg/mL (≈ 0.206 µM); MIC [22]: 0.25 µg/mL (≈ 0.271 µM); MIC [23]: 0.25 µg/mL (≈ 0.271 µM); MIC [24]: 0.28 µg/mL (≈ 0.303 µM); MIC [25]: 0.16 µg/mL (≈ 0.173 µM); MIC [26]: 0.16 µg/mL (≈ 0.173 µM); MIC [27]: 0.21 µg/mL (≈ 0.227 µM); MIC [28]: 0.19 µg/mL (≈ 0.206 µM); MIC [29]: 0.25 µg/mL (≈ 0.271 µM); MIC [30]: 0.19 µg/mL (≈ 0.206 µM); MIC [31]: 0.19 µg/mL (≈ 0.206 µM); MIC [32]: 0.19 µg/mL (≈ 0.206 µM); MIC [33]: 0.25 µg/mL (≈ 0.271 µM); MIC [34]: 0.25 µg/mL (≈ 0.271 µM)
2 | CCC(C)n1ncn(-c2ccc(N3CCN(c4ccc(OCC5COC(Cn6cncn6)(c6ccc(Cl)cc6Cl)O5)cc4)CC3)cc2)c1=O (stereo not drawn) [ITRACONAZOLE] | 0.5 (≈ 0.709 µM) | 0.5 (≈ 0.709 µM) | 1 (≈ 1.42 µM) | 0.14 (≈ 0.198 µM) | 0.5 (≈ 0.709 µM) | 0.75 (≈ 1.06 µM) | 0.5 (≈ 0.709 µM) | 0.5 (≈ 0.709 µM) | 0.5 (≈ 0.709 µM) | 11 (≈ 15.6 µM) | 4 (≈ 5.67 µM) | 16 (≈ 22.7 µM) | 16 (≈ 22.7 µM) | 3.67 (≈ 5.2 µM) | 16 (≈ 22.7 µM) | 0.5 (≈ 0.709 µM) | 1 (≈ 1.42 µM) | 4.75 (≈ 6.73 µM) | 1 (≈ 1.42 µM) | 1 (≈ 1.42 µM) | MIC [21]: 1 µg/mL (≈ 1.42 µM); MIC [22]: 1 µg/mL (≈ 1.42 µM); MIC [23]: 1 µg/mL (≈ 1.42 µM); MIC [24]: 1 µg/mL (≈ 1.42 µM); MIC [25]: 1 µg/mL (≈ 1.42 µM); MIC [26]: 1 µg/mL (≈ 1.42 µM); MIC [27]: 1 µg/mL (≈ 1.42 µM); MIC [28]: 0.5 µg/mL (≈ 0.709 µM); MIC [29]: 1 µg/mL (≈ 1.42 µM); MIC [30]: 0.5 µg/mL (≈ 0.709 µM); MIC [31]: 0.5 µg/mL (≈ 0.709 µM); MIC [32]: 0.5 µg/mL (≈ 0.709 µM); MIC [33]: 0.5 µg/mL (≈ 0.709 µM); MIC [34]: 0.5 µg/mL (≈ 0.709 µM)
